“And” between values parts separate entries of the source, which are not always exact repeats. Identical values can stand only once. Counter-ions that a name gives are not always drawn. Like-named read-outs stand apart in the source and are kept apart here.
Assay: Pharmacokinetic study in humans, sodium salt in enteric capsules, single and multiple dose (Example 2)
Type: in vivo, human
Details: for AUClast_D / Cmax D / AUC_TAU_D: dose-normalised; for AUC(0-t) / Cmax / Tmax / AUC / concentration at 24 h: human, plasma, oral; for Cmax: read-out: Cmax; for Tmax: read-out: Tmax; for concentration at 24 h: read-out: Clast
Experimental: An open, randomised, parallel-group study in healthy volunteers (hereafter referred to as subjects) was conducted to evaluate the exposure of 4-chloro-N-[2-[(4-chlorophenyl)methyl]-3-oxo-1,2,4-thiadiazol-5-yl]benzamide after single and multiple dose administration of 3 dose levels of the sodium salt of 4-chloro-N-[2-[(4-chlorophenyl)methyl]-3-oxo-1,2,4-thiadiazol-5-yl]benzamide and to evaluate combination with dapagliflozin at steady state.
For the study, Vcaps enteric capsules, size 0, were individually filled with 200 mg of milled test material together with 2 mg of sodium docusate, 125 mg of mannitol and 6.5 mg of sodium lauryl sulfate. […]
A screening visit (Visit 1) was performed within 28 days before randomisation and the start of IMP administration. The subjects were confined to the research clinic from the evening before Day 1 (Visit 2; Day—1). […]
Pre-dose safety assessments as well as pre- and post-dose PK assessments were performed. The subjects left the clinic after the last PK-sample on Day 1 and returned for a 24 h PK sample and dosing on Day 2 (Visit 3).
Subjects self-administered the test material at home from Day 3 to Day 15. A telephone visit to check compliance, AE status and use of concomitant medications will be performed on Day 8 (Visit 4).
The subjects returned to the clinic on Days 16 and 17 (Visits 5 and 6), for PK sampling and AE assessment. Visit 6 continued in the evening of Day 17, when the subjects were confined to the clinic until Day 18. On Day 18, pre- and post-dose PK and safety assessments were performed. The subjects left the clinic after the last PK sample on Day 18 and returned for a 24 h PK sample and dosing on Day 19 (Visit 7).
On Day 19 (Visit 7) subjects began co-administration of the test material and dapagliflozin (Forxiga), 10 mg per day for 7 days (Day 19 to Day 25). The subjects returned to the clinic on Day 25 (Visit 8) for final dosing, PK and safety assessments. A final end-of-study visit (Visit 9) for follow-up of safety assessments was conducted 28 days (+14 days) after Visit 8 or after early withdrawal.
Venous blood samples (approximately 5 mL) for the determination of plasma concentrations of 4-chloro-N-[2-[(4-chlorophenyl)methyl]-3-oxo-1,2,4-thiadiazol-5-yl]benzamide after administration of the test material were collected through an indwelling venous catheter on Days 1, 2, 16 to 19 and 25.
The blood samples were collected in pre-labelled Li-Heparin tubes. All the collected blood samples were be centrifuged at 1500 G for 10 minutes to separate plasma within 60 minutes from the sample is drawn. The separated plasma from each blood sample was be divided into 2 aliquots in pre-labelled polypropylene cryotubes (A and B samples, approximately 750 μL in each tube) and frozen at <−70° C. On Day 25, the plasma was divided in to 3 aliquots of at least 500 μL (A and B samples for the test material, and 1 sample for potential future analysis of dapagliflozin).
Samples for determination of plasma concentrations of 4-chloro-N[2-[(4-chlorophenyl)methyl]-3-oxo-1,2,4-thiadiazol-5-yl]benzamide were analysed by Lablytica Life Science AB, Uppsala, Sweden by means of a validated LS-MS/MS method.
The data of plasma concentration to respective time points for the analyte (4-chloro-N-[2-[(4-chlorophenyl)methyl]-3-oxo-1,2,4-thiadiazol-5-yl]benzamide) were used for the pharmacokinetic analysis. Pharmacokinetic analysis was performed using non-compartmental analysis (NCA) module of Phoenix WinNonlin 8.1 software to determine the following pharmacokinetic parameters.
After single dose administration of test material: • AUC0-24, Cmax, Tmax and dose proportionality (based on AUC0-24 and Cmax) (secondary endpoints). […]

[1] = 2000 mg Dose Group, capsule once daily, Day 18, Mean
[2] = 2000 mg Dose Group, capsule once daily, Day 18, Median
[3] = capsule once daily, Day 18, individual subjects, listed as test material
[4] = 200 mg, mean, dose group 200, capsule, Day 1
[5] = 200 mg, mean, dose group 200, capsule, Day 18
[6] = 400 mg, 400 mg Dose Group, capsules once daily, Day 18, Geometric Mean
[7] = 400 mg, 400 mg Dose Group, capsules once daily, Day 18, Mean
[8] = 400 mg, 400 mg Dose Group, capsules once daily, Day 18, Median
[9] = 400 mg, 400 mg Dose Group, capsules once daily, Day 18, individual subjects
[10] = 400 mg, mean, dose group 400, capsule, Day 1
[11] = 400 mg, mean, dose group 400, capsule, Day 18
[12] = 800 mg, 800 mg Dose Group, capsules once daily, Day 18, Geometric Mean
[13] = 800 mg, 800 mg Dose Group, capsules once daily, Day 18, Mean
[14] = 800 mg, 800 mg Dose Group, capsules once daily, Day 18, Median
[15] = 800 mg, 800 mg Dose Group, capsules once daily, Day 18, individual subjects
[16] = 800 mg, mean, dose group 800, capsule, Day 1
[17] = 800 mg, mean, dose group 800, capsule, Day 18
[18] = 2000 mg, 2000 mg Dose Group, capsule once daily, Day 18, Geometric Mean
[19] = 2000 mg, 2000 mg Dose Group, capsule once daily, Day 18, Mean
[20] = 2000 mg, 2000 mg Dose Group, capsule once daily, Day 18, Median

**Q.** What does the source list for O=C(Nc1nc(=O)n(Cc2ccc(Cl)cc2)s1)c1ccc(Cl)cc1 [Compound of formula II, sodium salt of 4-chloro-N-[2-[(4-chlorophenyl)methyl]-3-oxo-1,2,4-thiadiazol-5-yl]benzamide]?
**A.** AUClast_D [1]: 5.305 µg·h/mL/mg; Cmax D [1]: 0.2493 µg/mL/mg; AUC_TAU_D [2]: 4.752 µg·h/mL/mg; AUClast_D [2]: 4.888 µg·h/mL/mg; Cmax D [2]: 0.2403 µg/mL/mg; AUC_TAU_D (2000 mg Dose Group, capsule once daily, Day 18, individual subjects, listed as test material): 5.67 µg·h/mL/mg and 4.2 µg·h/mL/mg and 8.01 µg·h/mL/mg and 4.01 µg·h/mL/mg and 4.75 µg·h/mL/mg and 3.87 µg·h/mL/mg and 5.06 µg·h/mL/mg; AUClast_D [3]: 5.65 µg·h/mL/mg and 6.98 µg·h/mL/mg and 4.19 µg·h/mL/mg and 7.98 µg·h/mL/mg and 4 µg·h/mL/mg and 4.74 µg·h/mL/mg and 3.86 µg·h/mL/mg and 5.04 µg·h/mL/mg; Cmax D [3]: 0.261 µg/mL/mg and 0.31 µg/mL/mg and 0.21 µg/mL/mg and 0.36 µg/mL/mg and 0.201 µg/mL/mg and 0.231 µg/mL/mg and 0.173 µg/mL/mg and 0.25 µg/mL/mg; AUC(0-t) [4]: 87.4 µg·h/mL; Cmax [4]: 7.19 µg/mL; Tmax [4]: 15 h; AUC(0-t) [5]: 1060 µg·h/mL; Cmax [5]: 49.9 µg/mL; Tmax [5]: 8.03 h; Cmax (200 mg, repeated dosing, study of Example 2): ~50 µg/mL; AUC [6]: 1500 µg·h/mL; AUC(0-t) [6]: 1520 µg·h/mL; Cmax [6]: 69.6 µg/mL; Tmax [6]: 4.27 h; AUC [7]: 1530 µg·h/mL; AUC(0-t) [7]: 1540 µg·h/mL; Cmax [7]: 70.8 µg/mL; Tmax [7]: 8.31 h; AUC [8]: 1400 µg·h/mL; AUC(0-t) [8]: 1480 µg·h/mL; Cmax [8]: 66.1 µg/mL; Tmax [8]: 5 h; AUC [9]: 1210 µg·h/mL; AUC(0-t) [9]: 1210 µg·h/mL; Cmax [9]: 56.2 µg/mL; AUC(0-t) [10]: 158 µg·h/mL; Cmax [10]: 10.6 µg/mL; Tmax [10]: 15.4 h; AUC(0-t) [11]: 1540 µg·h/mL; Cmax [11]: 70.8 µg/mL; Tmax [11]: 8.31 h; AUC [12]: 2530 µg·h/mL; AUC(0-t) [12]: 2590 µg·h/mL; concentration at 24 h [12]: 108 µg/mL; Cmax [12]: 118 µg/mL; AUC [13]: 2560 µg·h/mL; AUC(0-t) [13]: 2620 µg·h/mL; concentration at 24 h [13]: 110 µg/mL; Cmax [13]: 118 µg/mL; Tmax [13]: 11.5 h; AUC [14]: 2730 µg·h/mL; AUC(0-t) [14]: 2670 µg·h/mL; concentration at 24 h [14]: 115 µg/mL; Cmax [14]: 122 µg/mL; Tmax [14]: 9.99 h; AUC [15]: 1810 µg·h/mL; AUC(0-t) [15]: 1800 µg·h/mL; concentration at 24 h [15]: 73.7 µg/mL; Cmax [15]: 87.3 µg/mL; AUC(0-t) [16]: 340 µg·h/mL; Cmax [16]: 22.8 µg/mL; Tmax [16]: 15.6 h; AUC(0-t) [17]: 2620 µg·h/mL; Cmax [17]: 118 µg/mL; Tmax [17]: 11.5 h; AUC [18]: 987 µg·h/mL; AUC(0-t) [18]: 1030 µg·h/mL; Cmax [18]: 48.6 µg/mL; AUC [19]: 1020 µg·h/mL; AUC(0-t) [19]: 1060 µg·h/mL; concentration at 24 h [19]: 44 µg/mL; Cmax [19]: 49.9 µg/mL; Tmax [19]: 8.03 h; AUC [20]: 950 µg·h/mL; AUC(0-t) [20]: 978 µg·h/mL; Cmax [20]: 48.1 µg/mL; Tmax [20]: 6.5 h; peak blood plasma concentration (repeated dosing of 200 mg in the form of a capsule): ≥ 50 µg/mL; blood plasma concentration versus same amount of free base form (repeated dosing, 200 to 1000 mg/day): approximately five-fold higher

— US20240082222A1, “4-CHLORO-N-[2-[(4-CHLOROPHENYL)METHYL]-3-OXO-1,2,4-THIADIAZOL-5-YL]BENZAMIDE FOR USE IN MEDICINE” (Betagenon AB, priority 2021, published 2024)
